Experimental data from ChEMBL document CHEMBL1201862, “PubChem BioAssay data set” (2004).
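Protocol summary: plate cells (96-well), add compound at 5 concentrations, incubate 48 h, interpolate endpoints linearly. GI50: concentration for 50% inhibition of growth.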 Calls of active or inactive are those of the source. Rule as the data show it: active = GI50 up to about 1.1 µM and inactive = higher.

Key:
Assay in all cases: NCI anticancer screen, dose series, 48 h
786-0 = test system: 786-0
HCT-15 = test system: HCT-15
HT-29 = test system: HT-29
LOX IMVI = test system: LOX IMVI
MCF7 = test system: MCF7
MOLT-4 = test system: MOLT-4
NCI-H226 = test system: NCI-H226
NCI-H23 = test system: NCI-H23
NCI-H460 = test system: NCI-H460
PC-3 = test system: PC-3
SF-295 = test system: SF-295
SK-MEL-2 = test system: SK-MEL-2
SNB-19 = test system: SNB-19
SNB-75 = test system: SNB-75
U-251 = test system: U-251
UACC-62 = test system: UACC-62
K562 = test system: K562

SMILES	GI50 (786-0)	GI50 (HCT-15) [µM]	GI50 (HT-29)	GI50 (LOX IMVI)	GI50 (MCF7)	GI50 (MOLT-4)	GI50 (NCI-H226)	GI50 (NCI-H23)	GI50 (NCI-H460)	GI50 (PC-3)	GI50 (SF-295)	GI50 (SK-MEL-2)	GI50 (SNB-19)	GI50 (SNB-75)	GI50 (U-251)	GI50 (UACC-62)	GI50 (K562)
O=C(O)c1ccccc1-c1ccccc1C(=O)Nc1ccc2c(c1)Cc1cc(F)ccc1-2	24.3 µM (inactive)	17.6	22.8 µM (inactive)	19.7 µM (inactive)	27.5 µM (inactive)	26.7 µM (inactive)	30.5 µM (inactive)	17.9 µM (inactive)	26.6 µM (inactive)	26.4 µM (inactive)	26.4 µM (inactive)	18.8 µM (inactive)	36.4 µM (inactive)	26.6 µM (inactive)	21.3 µM (inactive)	17.7 µM (inactive)	
CC(C)N1CCN(c2ccncc2S(=O)(=O)N2CCCCC2)CC1	> 100 µM (inactive)	> 100	> 100 µM (inactive)	> 100 µM (inactive)	> 100 µM (inactive)		> 100 µM (inactive)	> 100 µM (inactive)	> 100 µM (inactive)	> 100 µM (inactive)	> 100 µM (inactive)	> 100 µM (inactive)	> 100 µM (inactive)	> 100 µM (inactive)	> 100 µM (inactive)	> 100 µM (inactive)	> 100 µM (inactive)
CCCCCCCCCCCCCCCCCCNC(=S)N/C=C1/C(=O)C=C(C)OC1=O	29.6 µM (inactive)	15.7	20.8 µM (inactive)	36.9 µM (inactive)	29.9 µM (inactive)	12.7 µM (inactive)	32.9 µM (inactive)	22.8 µM (inactive)	13.1 µM (inactive)	17 µM (inactive)	23.8 µM (inactive)	21.4 µM (inactive)	20.4 µM (inactive)	14.3 µM (inactive)	31.3 µM (inactive)	30.2 µM (inactive)	
CSC1NC(c2ccc(Cl)cc2)=C(C#N)C(=O)N1C1OCC(OC(C)=O)C(OC(C)=O)C1OC(C)=O (centres undefined)	> 100 µM (inactive)	62.1	> 100 µM (inactive)	> 100 µM (inactive)	> 100 µM (inactive)	8.24 µM (inactive)	> 100 µM (inactive)	> 100 µM (inactive)	> 100 µM (inactive)	> 100 µM (inactive)	> 100 µM (inactive)		> 100 µM (inactive)	> 100 µM (inactive)	> 100 µM (inactive)	> 100 µM (inactive)	> 100 µM (inactive)
Nc1nc2cc(Cl)ccc2n1N	> 100 µM (inactive)	> 100	> 100 µM (inactive)	> 100 µM (inactive)	> 100 µM (inactive)	> 100 µM (inactive)	> 100 µM (inactive)	> 100 µM (inactive)		> 100 µM (inactive)	> 100 µM (inactive)		> 100 µM (inactive)	> 100 µM (inactive)	> 100 µM (inactive)	86.9 µM (inactive)	> 100 µM (inactive)
CC1C(c2ccc(Cl)cc2)c2cc3c(cc2OC1N1CCOCC1)OCO3 (centres undefined)	56.8 µM (inactive)	> 100	49.5 µM (inactive)	> 100 µM (inactive)	> 100 µM (inactive)	> 100 µM (inactive)		> 100 µM (inactive)	> 100 µM (inactive)	67.3 µM (inactive)	31.8 µM (inactive)	69.7 µM (inactive)	80.9 µM (inactive)	44.1 µM (inactive)		74 µM (inactive)	> 100 µM (inactive)
O=c1[nH]cc(/C=N\Nc2ccccc2)c(=O)[nH]1	> 100 µM (inactive)	36.3	49.2 µM (inactive)	6.14 µM (inactive)	> 100 µM (inactive)		> 100 µM (inactive)	> 100 µM (inactive)	47.8 µM (inactive)	> 100 µM (inactive)	25.7 µM (inactive)	> 100 µM (inactive)	> 100 µM (inactive)	> 100 µM (inactive)	> 100 µM (inactive)	66.7 µM (inactive)	3.96 µM (inactive)
Cc1ccc(-n2cnc3c(N)nc(N)nc32)cc1	> 100 µM (inactive)	> 100	> 100 µM (inactive)	> 100 µM (inactive)	66.5 µM (inactive)	44.7 µM (inactive)	> 100 µM (inactive)	> 100 µM (inactive)		> 100 µM (inactive)	> 100 µM (inactive)	> 100 µM (inactive)	> 100 µM (inactive)	1.53 µM (inactive)	> 100 µM (inactive)	84.1 µM (inactive)	
Cc1ccc(S(=O)(=O)NN=C2CCCCCCCCCCC2)cc1	> 100 µM (inactive)	> 100	> 100 µM (inactive)	> 100 µM (inactive)	> 100 µM (inactive)	> 100 µM (inactive)	38.4 µM (inactive)	> 100 µM (inactive)	> 100 µM (inactive)	> 100 µM (inactive)	> 100 µM (inactive)	> 100 µM (inactive)	> 100 µM (inactive)		> 100 µM (inactive)	> 100 µM (inactive)	> 100 µM (inactive)
O=C1CCCc2ccc3c(c21)CC1(Cc2ccccc2C1)C3	29.1 µM (inactive)	41.7	17.5 µM (inactive)	30.6 µM (inactive)	57.5 µM (inactive)		13.3 µM (inactive)	36.8 µM (inactive)		98.4 µM (inactive)	24.2 µM (inactive)	> 100 µM (inactive)		1.26 µM (inactive)	41.8 µM (inactive)	26.1 µM (inactive)	10.8 µM (inactive)
Cn1c(S)nc2c(Cl)cc(Cl)cc2c1=O	> 100 µM (inactive)	> 100		> 100 µM (inactive)	71.4 µM (inactive)	18.7 µM (inactive)		> 100 µM (inactive)	> 100 µM (inactive)	> 100 µM (inactive)	> 100 µM (inactive)	> 100 µM (inactive)	> 100 µM (inactive)	55.3 µM (inactive)	> 100 µM (inactive)	> 100 µM (inactive)	
CCOC(=O)/C(C(N)=O)=C(O)/C(O)=C/C(=O)c1ccc(Cl)cc1	17.2 µM (inactive)	17.7	21.8 µM (inactive)	16.3 µM (inactive)	23.8 µM (inactive)	20.1 µM (inactive)	23.2 µM (inactive)	18.3 µM (inactive)	16 µM (inactive)	19.1 µM (inactive)	29.2 µM (inactive)	18.5 µM (inactive)	33.3 µM (inactive)	12.8 µM (inactive)	15.6 µM (inactive)	20.6 µM (inactive)	
O=C1/C(=C/c2ccco2)NC(=S)N1CN1CCOCC1	> 100 µM (inactive)	> 100	> 100 µM (inactive)	> 100 µM (inactive)	> 100 µM (inactive)	> 100 µM (inactive)	> 100 µM (inactive)	> 100 µM (inactive)		> 100 µM (inactive)	> 100 µM (inactive)	> 100 µM (inactive)	> 100 µM (inactive)	> 100 µM (inactive)	> 100 µM (inactive)	> 100 µM (inactive)	> 100 µM (inactive)
CC(C)(Br)C(Br)CCC1(C2CO2)CO1 (centres undefined)	> 5 µM (inactive)	> 5	> 5 µM (inactive)		> 5 µM (inactive)	> 5 µM (inactive)	> 5 µM (inactive)	> 5 µM (inactive)		> 5 µM (inactive)	> 5 µM (inactive)		> 5 µM (inactive)	> 5 µM (inactive)	> 5 µM (inactive)		> 5 µM (inactive)
CCn1c(-c2ccc(C)cc2)cs/c1=N\C(P(=O)(O)O)P(=O)(O)O	> 100 µM (inactive)	> 100	> 100 µM (inactive)	> 100 µM (inactive)	> 100 µM (inactive)	> 100 µM (inactive)	> 100 µM (inactive)	> 100 µM (inactive)	> 100 µM (inactive)	> 100 µM (inactive)	> 100 µM (inactive)		> 100 µM (inactive)	> 100 µM (inactive)	> 100 µM (inactive)	> 100 µM (inactive)	> 100 µM (inactive)
COc1ccc(/C=C(\C#N)c2nc(-c3cc4ccccc4oc3=O)cs2)cc1	19.3 µM (inactive)	51.6	41.3 µM (inactive)	30.5 µM (inactive)	55.7 µM (inactive)	> 100 µM (inactive)	31.6 µM (inactive)		21.4 µM (inactive)	47.8 µM (inactive)	21.9 µM (inactive)	33.3 µM (inactive)	16.4 µM (inactive)	23.2 µM (inactive)	13.5 µM (inactive)	22.7 µM (inactive)	58.5 µM (inactive)
O=C1C=CC(=O)c2c(O)nc(CBr)nc21	> 100 µM (inactive)	> 100	60.5 µM (inactive)	> 100 µM (inactive)	56.2 µM (inactive)	> 100 µM (inactive)		80.5 µM (inactive)		42.2 µM (inactive)	68.9 µM (inactive)	> 100 µM (inactive)		> 100 µM (inactive)	95.9 µM (inactive)	46.5 µM (inactive)	94.4 µM (inactive)
COc1c2nc(CCl)n(C)c(=O)c2c(OC)c2c(=O)n(C)c(CCl)nc12	0.904 µM (active)	1.48	1.3 µM (inactive)	0.446 µM (active)	0.48 µM (active)	0.294 µM (active)	3.06 µM (inactive)	1.62 µM (inactive)	1.97 µM (inactive)	1.29 µM (inactive)	1.84 µM (inactive)		2.11 µM (inactive)	0.719 µM (active)	1.64 µM (inactive)		0.689 µM (active)
CCc1nc(N)nc(N)c1-c1ccc(Cl)c(Cl)c1 [ETOPRINE]	0.653 µM (active)	3.75	0.879 µM (active)	3.51 µM (inactive)	3.05 µM (inactive)			2.74 µM (inactive)	0.506 µM (active)	34.5 µM (inactive)	0.738 µM (active)	23.4 µM (inactive)	25.2 µM (inactive)	35.1 µM (inactive)	2.79 µM (inactive)	0.711 µM (active)	
